tested on: HBV rcDNA in HepDE19 cells; test: HepDE19 assay with bDNA quantitation of HBV rcDNA; format: cell-based, hepatitis B virus (HBV); details: Hepatitis B virus, HepDE19, 168 h, HepDE19 cells, 7 day incubation, rcDNA by Quantigene 2.0 bDNA assay; read-out: DE-19 bDNA EC50
Experimental: HepDE19 Assay with bDNA Quantitation of HBV rcDNA:
HepDE19 cell culture system is a HepG2 (human hepatocarcinoma) derived cell line that supports HBV DNA replication and cccDNA formation in a tetracycline (Tet)-regulated manner and produces HBV rcDNA and a detectable reporter molecule dependent on the production and maintenance of cccDNA (Guo, et al., 2007, J. Virol. 81:12472-12484).
HepDE19 (50,000 cells/well) were plated in 96 well collagen-coated tissue-culture treated microtiter plates in DMEM/F12 medium supplemented with 10% fetal bovine serum, 1% penicillin-streptomycin and 1 μg/mL tetracycline and incubated in a humidified incubator at 37° C. and 5% CO2 overnight. Next day, the cells were switched to fresh medium without tetracycline and incubated for 4 hours at 37° C. and 5% CO2. The cells were treated with fresh Tet-free medium with compounds at concentrations starting at 25 μM and a serial, ½ log, 8-point, titration series in duplicate. The final DMSO concentration in the assay was 0.5%. The plates were incubated for 7 days in a humidified incubator at 37° C. and 5% CO2. Following a 7 day-incubation, the level of rcDNA present in the inhibitor-treated wells was measured using a Quantigene 2.0 bDNA assay kit (Affymetrix, Santa Clara, Calif.) with HBV specific custom probe set and manufacturers instructions. Concurrently, the effect of compounds on cell viability was assessed using replicate plates, plated at a density of 5,000 cells/well and incubated for 4 days, to determine the ATP content as a measure of cell viability using the cell-titer glo reagent (CTG; Promega Corporation, Madison, Wis.) as per manufacturer's instructions. The plates were read using a Victor luminescence plate reader (PerkinElmer Model 1420 Multilabel counter) and the relative luminescence units (RLU) data generated from each well was calculated as % inhibition of the untreated control wells and analyzed using XL-Fit module in Microsoft Excel to determine EC50 and EC90 (bDNA) and CC50 (CTG) values using a 4-parameter curve fitting algorithm.
Representative compounds of the invention were tested for their ability to inhibit formation of relaxed circular DNA (rcDNA) in a HepDE19 assay, as described elsewhere herein.

| SMILES | EC50 |
| --- | --- |
| CC[C@@H](C)OC1CCOc2c(C(=O)Nc3ccc(F)c(F)c3)cccc21 (stereo partly drawn) [Compound 14, 4-((R)-sec-butoxy)-N-(3,4-difluorophenyl)chromane-8-carboxamide] | 6 µM |
| O=C(N[C@H]1CCOc2c(C(=O)Nc3ccc(F)c(F)c3)cccc21)c1ccncc1 [Compound 16] | 13 µM |
| COCCCOC(=O)N[C@H]1CCOc2c(C(=O)Nc3ccc(F)c(F)c3)cccc21 [Compound 19, 3-Methoxypropyl (8-((3,4-difluorophenyl)carbamoyl)chroman-4-yl) carbamate] | 6 µM |
| O=C(Nc1ccc(F)c(F)c1)c1cccc2c1OCC[C@H]2NC(=O)N1CCCC1 [Compound 24, (R)-N-(8-((3,4-difluorophenyl)carbamoyl)chroman-4-yl)pyrrolidine-1-carboxamide] | 24 µM |
| O=C(N[C@H]1CCOc2c(C(=O)Nc3ccc(F)c(F)c3)cccc21)OCc1ccccn1 [Compound 27, Pyridin-2-ylmethyl-(8-((3,4-difluorophenyl)carbamoyl)chroman-4-yl)carbamate] | 2.5 µM |
| O=C(N[C@@H]1CCOc2c(C(=O)Nc3ccc(F)c(F)c3)cccc21)OCc1ccccn1 [Compound 28, pyridin-2-ylmethyl (R)-(8-((3,4-difluorophenyl)carbamoyl)chroman-4-yl)carbamate] | 15 µM |
| O=C(N[C@H]1CCOc2c(C(=O)Nc3ccc(F)c(F)c3)cccc21)OCc1ccncc1 [Compound 29, Pyridin-4-ylmethyl-(8-((3,4-difluorophenyl)carbamoyl)chroman-4-yl)carbamate] | 2.2 µM |
| O=C(N[C@@H]1CCOc2c(C(=O)Nc3ccc(F)c(F)c3)cccc21)OCc1ccncc1 [Compound 30, pyridin-4-ylmethyl (R)-(8-((3,4-difluorophenyl)carbamoyl)chroman-4-yl)carbamate] | 11 µM |
| COC(=O)N[C@H]1CCOc2c(C(=O)NCc3ccc(F)cc3)cccc21 [Compound 31, Methyl (S)-(8-((4-fluorobenzyl)carbamoyl)chroman-4-yl)carbamate] | 17 µM |
| COC(=O)N[C@H]1CCOc2c(C(=O)Nc3ccc(F)c(Cl)c3)cccc21 [Compound 32, Methyl (S)-(8-((3-chloro-4-fluorophenyl)carbamoyl)chroman-4-yl)carbamate] | 0.85 µM |
| COC(=O)N[C@H]1CCOc2c(C(=O)Nc3ccc(F)cc3)cccc21 [Compound 33, Methyl (S)-(8-((4-fluorophenyl)carbamoyl)chroman-4-yl)carbamate] | 3.5 µM |
| NC(=O)NC1CCOc2c(C(=O)Nc3ccc(F)c(F)c3)cccc21 (stereo not shown) [Compound 34, N-(3,4-Difluorophenyl)-4-ureidochromane-8-carboxamide] | 4.7 µM |
| COC(=O)N[C@H]1CCOc2c(C(=O)Nc3ccccc3)cccc21 [Compound 35, Methyl (S)-(8-(phenylcarbamoyl)chroman-4-yl)carbamate] | 7.5 µM |

same assay, conditions: Hepatitis B virus, HepDE19, 168 h, read-out: DE-19 bDNA EC50, HepDE19 cells, 7 day incubation, rcDNA by Quantigene 2.0 bDNA assay

| SMILES | EC50 |
| --- | --- |
| CNC(=O)N[C@H]1CCOc2c(C(=O)Nc3ccc(F)c(F)c3)cccc21 [Compound 13, (S)—N-(3,4-difluorophenyl)-4-(3-methylureido) chromane-8-carboxamide] | 2.3 µM |
| CCOC(=O)N[C@H]1CCOc2c(C(=O)Nc3ccc(F)c(F)c3)cccc21 [Compound 18, Ethyl (8-((3,4-difluorophenyl)carbamoyl)chroman-4-yl)carbamate] | 6.6 µM |
| CC(C)OC(=O)N[C@H]1CCOc2c(C(=O)Nc3ccc(F)c(F)c3)cccc21 [Compound 20, Isopropyl (8-((3,4-difluorophenyl)carbamoyl)chroman-4-yl)carbamate] | 14 µM |
| CCCOC(=O)N[C@H]1CCOc2c(C(=O)Nc3ccc(F)c(F)c3)cccc21 [Compound 21, Propyl (8-((3,4-difluorophenyl)carbamoyl)chroman-4-yl)carbamate] | 22 µM |
| COCCOC(=O)N[C@H]1CCOc2c(C(=O)Nc3ccc(F)c(F)c3)cccc21 [Compound 22, 2-Methoxyethyl (8-((3,4-difluorophenyl)carbamoyl)chroman-4-yl) carbamate] | 4.7 µM |
| O=C(N[C@H]1CCOc2c(C(=O)Nc3ccc(F)c(F)c3)cccc21)OCc1cccnc1 [Compound 23] | 3 µM |

Source: US11001564B2, “Substituted chromane-8-carboxamide compounds and analogues thereof, and methods using same” (priority 2016, dated 2021)
